Measured values from patent EP4763206A1, “AGENT FOR SUPPRESSING AGGREGATION OF TDP-43, AGENT FOR SUPPRESSING CELL DEATH OF CELLS IN WHICH TDP-43 IS OVEREXPRESSED, AND AGENT FOR PREVENTING OR TREATING DISEASES ASSOCIATED WITH AGGREGATION OF TDP-43” (Socium Inc., priority 2023, dated 2025).
Entries after “also recorded” stand apart in the source; their conditions may differ. Where two headings read alike, the source gives them in different places.

Key:
[1] = tested on: TDP-43; test: Soluble/insoluble TDP-43 fractions in TDP-43-transfected Neuro2a cells, western blot (Reference Example 3); assay type: cell-based, Mouse; settings: 10 µmol/L added 6 hours after transfection; for number of soluble fractions versus insoluble fractions of TDP-43: cultured for 12 hours (Figure 5); for proportion of insoluble fractions based on total of soluble and insoluble fractions of TDP-43: cultured for 12 hours (Figure 6)
Method: Mouse neuroblastoma (Neuro2a) cells were seeded on a dish. The Neuro2a cells were cultured in a culture medium containing DMEM+10% FBS at 37°C in the presence of 5% CO2. On the first day after seeding, differentiation into neurons was initiated. Differentiation into neurons was performed in a culture medium containing DMEM+2% FBS+20 µmol/L retinoic acid. On the fourth day after seeding, cells were transfected with synthesized TDP-43 mRNA by a lipofection method. Cells were sampled at 6 hours, 9 hours, 12 hours, 15 hours, 18 hours, and 21 hours after transfection. […] For sampling, cells were lysed in an RIPA buffer and centrifuged at 22,000×g for 30 minutes at 4°C, the supernatant was used as the soluble fraction, the precipitate was used as the insoluble fraction, and equal volumes of a 2×SDS sample buffer were added to the respective fractions and heated at 95°C for 5 minutes to prepare electrophoresis samples. The electrophoresis samples were subjected to electrophoresis using a polyacrylamide gel, TDP-43 was then transferred to a PVDF membrane. TDP-43 was detected through chemiluminescence using anti-TDP-43 antibodies as primary antibodies and HRP-conjugated anti-rabbit antibodies as secondary antibodies. […] The insoluble fractions of TDP-43 indicate the aggregation of TDP-43.
Neuro2a cells were seeded on a dish. On the first day after seeding, differentiation into neurons was initiated. On the fourth day after seeding, cells were transfected with the TDP-43 gene.

[2] = tested on: Neuro2a cells; test: Suppression of cell death in TDP-43-transfected Neuro2a cells (Reference Example 2); assay type: cell-based, Mouse; settings: 10 to 10,000 nmol/L added 5 hours after transfection; evaluated 7 days after transfection (Figures 3, 4)
Method: Neuro2a cells were seeded on a dish. On the first day after seeding, differentiation into neurons was initiated. On the fourth day after seeding, cells were transfected with the TDP-43 gene. […] In addition, as a control, 10 nmol/L, 50 nmol/L, 100 nmol/L, 500 nmol/L, 1,000 nmol/L, 5,000 nmol/L, or 10,000 nmol/L of ropinirole was added to a culture medium.
The proportion of dead cells was evaluated 7 days after the cells were transfected with the TDP-43 gene.

[3] = cited from earlier work
[4] = tested on: TDP-43; test: Soluble/insoluble TDP-43 fractions in motor neurons derived from iPS cells of healthy subjects, western blot (Reference Example 4); assay type: cell-based, human; settings: 10 µmol/L, cultured for 20 days (Figure 7)
Method: 100 µL of an EHS-gel basement membrane matrix (commercially available from FUJIFILM Wako Pure Chemical Corporation) was added to 12.5 mL of DMEM (Dulbecco's Modified Eagle Medium, commercially available from FUJIFILM Wako Pure Chemical Corporation) and mixed, and the mixture was added to a 24-well plate at 600 µL per well. The plate was left at room temperature for 2 hours, and the solution was then removed from the wells. Next, 600 µL of DMEM was added to each well, and the plate was left at room temperature for 2 hours.
Motor neurons derived from iPS cells of healthy subjects and motor neurons derived from iPS cells of ALS patients were obtained from iXCells Biotechnologies. The motor neurons were quickly thawed in a thermostatic oven at 37°C and suspended in a motor neuron maintenance culture medium (iXCells Biotechnologies). […]
The soluble protein fractions and the insoluble protein fractions were subjected to SDS-PAGE, and the proteins were transferred to a PVDF membrane. […] Next, the PVDF membrane was washed three times with a buffer solution, 1 mL of a luminescence reagent (ImmunoStar LD, commercially available from FUJIFILM Wako Pure Chemical Corporation) was then used to induce luminescence from the labeled secondary antibodies, and the PVDF membrane was imaged.

[5] = tested on: TDP-43; test: Soluble/insoluble TDP-43 fractions in motor neurons derived from iPS cells of ALS patients, western blot (Reference Example 4); assay type: cell-based, human; settings: 10 µmol/L; for bands for insoluble fractions of TDP-43: cultured for 20 days (Figure 7); for average proportion of insoluble fractions of TDP-43: cultured for 20 days, three experiments, untreated ALS about 46.1%, healthy about 7.4%
[6] = Reported human pharmacokinetics of D-cycloserine; assay type: in vivo, humans; settings: estimated; 15 mg orally administered twice daily
[7] = cited from earlier work; remark: listed apart in the source
[8] = tested on: Neuro2a cells; test: Cell death suppression by D-cycloserine combined with edaravone in TDP-43-transfected Neuro2a cells (Example 1); assay type: cell-based; settings: Mus musculus, N2a
Method: Neuro2a cells were seeded on a dish. On the first day after seeding, differentiation into neurons was initiated. On the fourth day after seeding, cells were transfected with the TDP-43 gene. […] The proportion of dead cells was evaluated 7 days after the cells were transfected with the TDP-43 gene. […] Here, the relative viability indicates the proportion of the number of viable cells overexpressing TDP-43 based on 100% of the number of viable cells not overexpressing TDP-43. […] The CI was calculated using the following formula. […] CI=1 indicates an additive effect, CI>1 indicates an antagonistic effect, and CI<1 indicates a synergistic effect.

With `N[C@@H]1CONC1=O` [D-cycloserine, (4R)-4-Amino-1,2-oxazolidin-3-one] the “number of soluble fractions versus insoluble fractions of TDP-43” value [1] was “the number of soluble fractions of TDP-43 was larger than the number of insoluble fractions of TDP-43”, the “proportion of insoluble fractions based on total of soluble and insoluble fractions of TDP-43” value [1] was “less than half” and the “cell death in cells transfected with the TDP-43 gene” value [2] was “cell death was inhibited; also recorded: exhibited an effect of inhibiting cell death in a concentration-dependent manner”. The side effects ([3]; 150 mg administered to humans) was “headaches”, the side effects ([3]; 250 mg administered to humans to treat tuberculosis) was “serious side effects such as epileptiform seizure and mental confusion” and the “bands for insoluble fractions of TDP-43” value [4] was “bands for insoluble fractions were unclear”. For the same compound, the “bands for insoluble fractions of TDP-43” value [5] was “bands for insoluble fractions were unclear”, the “average proportion of insoluble fractions of TDP-43” value [5] was “about 17.4%” and the trough value [6] was over 128 nmol/L. The Cmax ([7]; 15 mg orally administered to humans, read-out: maximum blood concentration (Cmax)) was about 5.6 µM, the half-life ([7]; in vivo) was “about 10 hours” and the EC50 ([8]; read-out: EC50 of the cell death suppressory effect of D-cycloserine, at 0 nmol/L of edaravone) was 151 nM. The EC50 ([8]; read-out: EC50 of the cell death suppressory effect of D-cycloserine, at 10 nmol/L of edaravone) was 149 nM, the EC50 ([8]; read-out: EC50 of the cell death suppressory effect of D-cycloserine, at 30 nmol/L of edaravone) was 135 nM and the EC50 ([8]; read-out: EC50 of the cell death suppressory effect of D-cycloserine, at 100 nmol/L of edaravone) was 119 nM. For the same compound, the EC50 ([8]; read-out: EC50 of the cell death suppressory effect of D-cycloserine, at 300 nmol/L of edaravone) was 107 nM and the EC50 ([8]; read-out: EC50 of the cell death suppressory effect of D-cycloserine, at 1,000 nmol/L of edaravone) was 87.6 nM.
In the case of `N[C@H]1CONC1=O` [L-cycloserine, (4S)-4-amino-1,2-oxazolidin-3-one], the “number of soluble fractions versus insoluble fractions of TDP-43” value [1] is reported as “the number of soluble fractions of TDP-43 was larger than the number of insoluble fractions of TDP-43”, the “proportion of insoluble fractions based on total of soluble and insoluble fractions of TDP-43” value [1] is reported as “less than half” and the “cell death in cells transfected with the TDP-43 gene” value [2] is reported as “exhibited an effect of inhibiting cell death in a concentration-dependent manner”.
For `CCCN(CCC)CCc1cccc2c1CC(=O)N2` [ropinirole], the “bands for insoluble fractions of TDP-43” value [4] was “bands for insoluble fractions were unclear”, the “bands for insoluble fractions of TDP-43” value [5] was “bands for insoluble fractions were unclear” and the “average proportion of insoluble fractions of TDP-43” value [5] was “about 19.3%”.
